Data published in patent US20060211726A1, “Ascomycin derivatives for combination treatment with tazorotene” (priority 2005, published 2006).

Tested on: psoriasis
Assay: Topical treatment of a person suffering from psoriasis
Type: in vivo
Conditions: 0.1% Protopic ointment twice a day plus 0.1% tazarotene (Tazorac) once a day in the same person; compared with 0.1% tazarotene alone once a day or 0.1% tacrilomus alone twice a day
Description: A composition according to one of examples 1-3 is administered topically once a day to person suffering from psoriasis.
Tacrilomus is administered twice a day as 0.1% Protopic® ointment to a person suffering from psoriasis. The same person receives 0.1% tazarotene as Tazorac® ointment once a day.

C=CC[C@@H]1/C=C(\C)C[C@H](C)C[C@H](OC)[C@H]2O[C@@](O)(C(=O)C(=O)N3CCCC[C@H]3C(=O)O[C@H](/C(C)=C/[C@@H]3CC[C@@H](O)[C@H](OC)C3)[C@H](C)[C@@H](O)CC1=O)[C@H](C)C[C@@H]2OC [Tacrilomus, tacrolimus]
Improvement of symptoms (efficacy): greater efficacy | side effects: fewer side effects
